What was measured:
[1] = Liquid; for mass density: 298.15 K, 100 kPa, Vibrating tube method; for vapor or sublimation pressure / Normal boiling temperature: Ebulliometric method (Recirculating still)
[2] = refractive index (Na D-line) (dimensionless); settings: 298.15 K; 101.33 kPa; Liquid; Standard Abbe refractometry
[3] = xn = mol fraction of the nth substance listed; settings: 298.15 K, 100 kPa, Liquid, Vibrating tube method

CCCCO [butan-1-ol]
Settings	mass density [kg/m3]	refractive index
[1]	805.9	–
[2]	–	1.39732

Settings	vapor or sublimation pressure [kPa]
[1], 402.59 K	150

CCCCO [butan-1-ol] + CCCCOC(C)=O
Settings	mass density [kg/m3]
[3], x2 = 0	805.9

CCCCOC(C)=O [butyl ethanoate]
Settings	Normal boiling temperature [°C]	mass density [kg/m3]	refractive index
[1]	125.83	876.5	–
[2]	–	–	1.39201

Settings	vapor or sublimation pressure [kPa]
[1], 413.3 K	150

CCCCOC(C)=O [butyl ethanoate] + CCCCO
[3]
Settings	mass density [kg/m3]
x1 = 0.0758	812.9
x1 = 0.1018	815.2
x1 = 0.1458	819
x1 = 0.2387	826.7
x1 = 0.3151	832.7
x1 = 0.3468	835.1
x1 = 0.3845	837.9
x1 = 0.3983	838.9
x1 = 0.4316	841.3
x1 = 0.5002	846.1
x1 = 0.5883	852
x1 = 0.6709	857.3
x1 = 0.7064	859.5
x1 = 0.7919	864.7
x1 = 0.8673	869.1
x1 = 0.9259	872.4
x1 = 0.9503	873.8
x1 = 1	876.5

CCCCOC(C)=O [butyl ethanoate] + CCCO
[3]
Settings	mass density [kg/m3]
x1 = 0.0433	805.1
x1 = 0.1028	812.1
x1 = 0.2026	822.6
x1 = 0.2517	827.3
x1 = 0.2927	831
x1 = 0.35	835.9
x1 = 0.3986	839.8
x1 = 0.4482	843.6
x1 = 0.554	851.1
x1 = 0.5962	853.9
x1 = 0.6371	856.5
x1 = 0.7071	860.8
x1 = 0.7623	864
x1 = 0.8001	866.1
x1 = 0.8413	868.4
x1 = 0.8942	871.2
x1 = 0.9401	873.5
x1 = 1	876.5

CCCCOC(C)=O [butyl ethanoate] + CCO
[3]
Settings	mass density [kg/m3]
x1 = 0.0443	793.7
x1 = 0.1461	810.2
x1 = 0.2003	817.6
x1 = 0.2554	824.3
x1 = 0.2954	828.8
x1 = 0.3487	834.3
x1 = 0.4451	843
x1 = 0.4968	847.2
x1 = 0.5987	854.6
x1 = 0.6505	858
x1 = 0.7492	863.9
x1 = 0.8035	866.9
x1 = 0.8567	869.7
x1 = 0.8978	871.7
x1 = 0.9429	873.9
x1 = 1	876.5

CCO [ethanol]
Settings	Normal boiling temperature [°C]	mass density [kg/m3]	refractive index
[1]	78.30	785.2	–
[2]	–	–	1.35933

Settings	vapor or sublimation pressure [kPa]
[1], 361.98 K	150

CCO [ethanol] + CCCCOC(C)=O
Settings	mass density [kg/m3]
[3], x2 = 0	785.2

CO [methanol]
Settings	vapor or sublimation pressure [kPa]
[1], 348.27 K	150

Settings	Normal boiling temperature [°C]	refractive index
[1]	64.70	–
[2]	–	1.32676

CCCO [propan-1-ol]
Settings	Normal boiling temperature [°C]	mass density [kg/m3]	refractive index
[1]	97.20	799.6	–
[2]	–	–	1.38315

Settings	vapor or sublimation pressure [kPa]
[1], 381.24 K	150

CCCO [propan-1-ol] + CCCCOC(C)=O
Settings	mass density [kg/m3]
[3], x2 = 0	799.6

Source: the NIST ThermoML archive (doi:10.1021/acs.jced.8b00182)
